Activity calls are given as the source filed them. No cut-off for these calls is given here.
What was measured:
[1] = test system: Human immunodeficiency virus 1; assay: Substrate activity at HIV1 reverse transcriptase assessed as incorporation of compound into growing DNA strand at 1 mM incubated for 1 hr using primer and template in presence of MnCl2 by gel based nucleotide incorporation assay
[2] = test system: Human immunodeficiency virus 1; assay: Inhibition of HIV1 reverse transcriptase assessed as reduction in dsDNA synthesis at 2.5 mM incubated for 1 hr by PicoGreen-based spectrophotometric assay
[3] = test system: Human immunodeficiency virus 1; assay: Substrate activity at HIV1 reverse transcriptase assessed as incorporation of compound into growing DNA strand at 500 to 1000 uM incubated for 1 hr using primer and template in presence of MgCl2 by gel based nucleotide incorporation assay; conditions: dose 500-1000 µM
[4] = test system: Human immunodeficiency virus 1; assay: Substrate activity at HIV1 reverse transcriptase assessed as incorporation of compound into growing DNA strand at 500 to 1000 uM incubated for 1 hr using primer and template in presence of MnCl2 by gel based nucleotide incorporation assay; conditions: dose 500-1000 µM
[5] = test system: Human immunodeficiency virus 1; assay: Substrate activity at HIV1 reverse transcriptase assessed as incorporation of compound into growing DNA strand at 500 uM incubated for 1 hr using primer and template in presence of MgCl2 by gel based nucleotide incorporation assay
[6] = test system: Human immunodeficiency virus 1; assay: Substrate activity at HIV1 reverse transcriptase assessed as incorporation of compound into growing DNA strand at 500 uM incubated for 1 hr using primer and template in presence of MnCl2 by gel based nucleotide incorporation assay
[7] = Inhibition of HIV1 reverse transcriptase assessed as reduction in dsDNA synthesis incubated for 1 hr by PicoGreen-based spectrophotometric assay; parameters: species or system Human immunodeficiency virus 1

| Compound | Activity [1] | inhibition (active/not active) [2] | Activity [3] | Activity [4] | Activity [5] | other results |
| --- | --- | --- | --- | --- | --- | --- |
| C[C@H](Cn1cnc2c(N)ncnc21)OCP(=O)(O)N[C@@H](Cc1ccccc1)C(=O)O | Active | inactive | – | – | – | – |
| CSCC[C@H](NP(=O)(O)OC[C@H]1O[C@@H](n2cnc3c(N)ncnc32)C[C@@H]1O)C(=O)O | – | inactive | inactive | inactive | – | – |
| C[C@H](Cn1cnc2c(N)ncnc21)OCP(=O)(O)N[C@@H](CC(=O)O)C(=O)O | Active | inactive | – | – | – | – |
| C[C@H](Cn1cnc2c(N)ncnc21)OCP(=O)(O)N[C@@H](Cc1c[nH]cn1)C(=O)O | Active | inactive | – | – | – | – |
| Nc1ncnc2c1ncn2[C@H]1C[C@H](O)[C@@H](COP(=O)(O)O)O1 | – | – | – | – | Active | – |
| Nc1ncnc2c1ncn2[C@H]1C[C@H](O)[C@@H](COP(=O)(O)N[C@@H](CC(=O)O)C(=O)O)O1 | – | inactive | Active | Active | – | – |
| C[C@H](Cn1cnc2c(N)ncnc21)OCP(=O)(O)N[C@@H](CCC(=O)O)C(=O)O | – | inactive | – | – | 26.8% | Activity [6]: 40.8% |
| C[C@H](Cn1cnc2c(N)ncnc21)OCP(=O)(O)O | – | – | – | – | inactive | – |
| C[C@H](Cn1cnc2c(N)ncnc21)OCP(=O)(O)N[C@@H](CCCNC(=N)N)C(=O)O | inactive | inactive | – | – | – | – |
| Nc1ncnc2c1ncn2[C@H]1C[C@H](O)[C@@H](COP(=O)(O)N[C@@H](Cc2ccccc2)C(=O)O)O1 | – | inactive | inactive | inactive | – | – |
| C[C@H](Cn1cnc2c(N)ncnc21)OCP(=O)(O)N[C@H](CC(=O)O)C(=O)O | – | inactive | – | – | Active | – |
| CSCC[C@H](NP(=O)(O)CO[C@H](C)Cn1cnc2c(N)ncnc21)C(=O)O | – | Active | – | – | – | IC50 [7]: 146 µM |
| N=C(N)NCCC[C@H](NP(=O)(O)OC[C@H]1O[C@@H](n2cnc3c(N)ncnc32)C[C@@H]1O)C(=O)O | – | inactive | inactive | inactive | – | – |
